This note sets out measurements from patent publication US20060004004A1, “Novel gamma secretase inhibitors” (Schering Corporation, priority 2004, published 2006).

Where “and” joins values, the source holds several entries; their conditions need not be identical. Equal entries are not always repeated. Where two headings read alike, the source gives them in different places.

The target in the experiment is T1, γ-secretase (Homo sapiens, UniProt P49768).
T1 construct: endogenous in cells; host or cells: membranes of 293 cells (T-REx, clone pTRE.15) with tetracycline-induced SPC99-Lon
Briefly: Gamma secretase activity, membrane assay with Aβ 40 / Aβ 42 ECL immunoassay (Zhang et al.). Format: biochemical. From the text: Antibodies W02, G2-10, and G2-11 were obtained from Dr. Konrad Beyreuther (University of Heidelberg, Heidelberg, Germany). W02 recognizes residues 5-8 of Aβ peptide, while G2-10 and G2-11 recognize the specific C-terminal structure of Aβ 40 and Aβ 42, respectively. Biotin-4G8 was purchased from Senetec (St. Louis, Mo.). All tissue culture reagents used in this work were from Life Technologies, Inc., unless otherwise specified. Pepstatin A was purchased from Roche Molecular Biochemicals; DFK167 was from Enzyme Systems Products (Livermore, Calif.).
Upon insertion into the membrane, the 17 amino acid signal peptide is processed, leaving an additional leucine at the N-terminus of Aβ. SPC99-lon was cloned into the pcDNA4/TO vector (Invitrogen) and transfected into 293 cells stably transfected with pcDNA6/TR, which is provided in the T-REX system (Invitrogen). The transfected cells were selected in Dulbecco's modified Eagle's media (DMEM) supplemented with 10% fetal bovine serum, 100 units/mL penicillin, 100 µg/mL streptomycin, 250 µg/mL zeocin, and 5 µg/mL blasticidin (Invitrogen). Colonies were screened for Aβ production by inducing C99 expression with […] tetracycline for 16-20 h and analyzing conditioned media with a sandwich immunoassay (see below). One of the clones, designated as pTRE.15, was used in these studies.
C99 expression in cells was induced with […] tetracycline for 20 h. The cells were pretreated with […] 12-myristate 13-acetate (PMA) and […] brefeldin A (BFA) for 5-6 h at 37° C. before harvesting. The cells were washed 3 times with cold phosphate-buffered saline (PBS) and harvested in buffer A containing 20 mM Hepes (pH 7.5), 250 mM sucrose, 50 mM KCl, 2 mM EDTA, 2 mM EGTA, and Complete protease inhibitor tablets (Roche Molecular Biochemicals). The cell pellets were flash-frozen in liquid nitrogen and stored at −70° C. before use.
To make membranes, the cells were resuspended in buffer A and lysed in a nitrogen bomb at 600 psi. The cell lysate was centrifuged at 1500 g for 10 min to remove nuclei and large cell debris. The supernatant was centrifuged at 100000 g for 1 h. The membrane pellet was resuspended in buffer A plus 0.5 M NaCl, and the membranes were collected by centrifugation at 200000 g for 1 h. The salt-washed membrane pellet was washed again in buffer A and centrifuged at 100000 g for 1 h. The final membrane pellet was resuspended in a small volume of buffer A using a Teflon-glass homogenizer. The protein concentration was determined, and membrane aliquots were flash-frozen in liquid nitrogen and stored at −70° C.
γ-Secretase Reaction and Aβ Analysis To measure γ-secretase activity, membranes were incubated at 37° C. for 1 h in […] of buffer containing 20 mM Hepes (pH 7.0) and 2 mM EDTA. At the end of the incubation, Aβ 40 and Aβ 42 were measured using an electrochemiluminescence (ECL)-based immunoassay. Aβ 40 was identified with antibody pairs TAG-G2-10 and biotin-W02, while Aβ 42 was identified with TAG-G2-11 and biotin-4G8. The ECL signal was measured using an ECL-M8 instrument (IGEN International, Inc.) according to the manufacturer's instructions. The data presented were the means of the duplicate or triplicate measurements in each experiment.

Where [1] appears, read: membranes of 293 cells expressing SPC99-Lon (clone pTRE.15), 37° C., 1 h, read-out: IC50 (μM), γ-secretase inhibitory activity.
Where [2] appears, read: same membrane assay, ranges given as 'about', read-out: IC50 values within the range.

For the molecule `O=C(CC1([C@H]2CCC[C@@H](c3cc(F)cc(F)c3)N2S(=O)(=O)c2ccc(Cl)cc2)CC1)N1CCC[C@H]1CO` [Example 5], the IC50 under setting [1] was found to be 0.0196 µM; the half-maximal inhibitory concentration (IC50) under setting [2] is 0.001 to 0.2 µM and 0.001 to 0.02 µM. On to `O=C(CC1([C@@H]2CCC[C@H](c3cc(F)cc(F)c3)N2S(=O)(=O)c2ccc(Cl)cc2)CC1)N1CCN(CCO)CC1` [Example 1], for which the 50% inhibitory concentration (IC50) runs as follows: under setting [1], 0.0028 µM; under setting [2], 0.001 to 0.2 µM and 0.001 to 0.02 µM. `O=C(CC1([C@H]2CCC[C@@H](C3CC3)N2S(=O)(=O)c2ccc(Cl)cc2)CC1)N1CCN2CCCC2C1` (some centres unmarked) [Example 44]: the IC50 under setting [2] lay in the range of 0.001 to 0.2 µM. Turning to `CCC1(OC)CC2CCC(C1)N2C(=O)C(O)C1([C@H]2CCC[C@@H](c3cc(F)cc(F)c3)N2S(=O)(=O)c2ccc(Cl)cc2)CC1` (some centres unmarked) [Example 28], the IC50 under setting [2] is 0.001 to 0.2 µM and 0.001 to 0.02 µM. On the same count and under the same terms, next, `O=C(CC1([C@H]2CCC[C@@H](c3cc(F)cc(F)c3)N2S(=O)(=O)c2ccc(Cl)cc2)CC1)N1CCCC1` [Example 6]: 0.001 to 0.2 µM; `C[C@@H]1CN(CCO)CCN1C(=O)C1([C@H]2CCC[C@@H](c3cc(F)cc(F)c3)N2S(=O)(=O)c2ccc(Cl)cc2)CC1` [Example 11]: 0.001 to 0.2 µM. On to `O=C(C(O)C1([C@H]2CCC[C@@H](c3cc(F)cc(F)c3)N2S(=O)(=O)c2ccc(Cl)cc2)CC1)N1CCC(N2CCCCC2)CC1` (some centres unmarked) [Example 25], for which the half-inhibitory concentration (IC50) under setting [1] is 0.0049 µM; the IC50 under setting [2] was 0.001 to 0.2 µM and 0.001 to 0.02 µM.

On to `CCC1(O)CC2CCC(C1)N2C(=O)C(O)C1([C@H]2CCC[C@@H](c3cc(F)cc(F)c3)N2S(=O)(=O)c2ccc(Cl)cc2)CC1` (some centres unmarked) [Example 29], for which the IC50 is, setting by setting: under setting [1], 0.0068 µM; under setting [2], 0.001 to 0.2 µM and 0.001 to 0.02 µM. Regarding `O=C(CC1(C2CCCC(c3cc(F)cc(F)c3)N2S(=O)(=O)c2ccc(Cl)cc2)CC1)N1CCC(N2CCCCC2)CC1` (centres unmarked) [Example 4], the IC50 reads like this: under setting [1], 0.0014 µM; under setting [2], 0.001 to 0.2 µM and 0.001 to 0.02 µM.

Take `O=S(=O)(CC1([C@@H]2CCC[C@H](c3cc(F)cc(F)c3)N2S(=O)(=O)c2ccc(Cl)cc2)CC1)N1CCC(N2CCCCC2)CC1` [Example 19]: the concentration for half-maximal inhibition (IC50) reads like this: under setting [1], 0.0119 µM; under setting [2], 0.001 to 0.2 µM and 0.001 to 0.02 µM. Regarding `O=C(N1C[C@@H](N2CCCCC2)C[C@@H]1CO)C1([C@H]2CCC[C@@H](c3cc(F)cc(F)c3)N2S(=O)(=O)c2ccc(Cl)cc2)CC1` [Example 17], the concentration for half-maximal inhibition (IC50) under setting [2] lay within 0.001 to 0.2 µM. Consider `O=C(CC1(C2CCCC(c3cc(F)cc(F)c3)N2S(=O)(=O)c2ccc(Cl)cc2)CC1)N1CCCCC1` (centres unmarked) [Example 2], for which the IC50 reads like this: under setting [1], 0.0164 µM; under setting [2], 0.001 to 0.2 µM and 0.001 to 0.02 µM. Consider `O=C(N1CCCC1)C1([C@H]2CCC[C@@H](c3cc(F)cc(F)c3)N2S(=O)(=O)c2ccc(Cl)cc2)CC1` [Example 8], for which, under setting [2], the IC50 is 0.001 to 0.2 µM. For the molecule `O=S(=O)(CC1([C@H]2CCC[C@@H](c3cc(F)cc(F)c3)N2S(=O)(=O)c2ccc(Cl)cc2)CC1)N1CCN(CCO)CC1` [Example 23], the IC50 runs as follows: under setting [1], 0.0124 µM; under setting [2], 0.001 to 0.2 µM and 0.001 to 0.02 µM.

Turning to `O=C(C(O)C1([C@H]2CCC[C@@H](c3cc(F)cc(F)c3)N2S(=O)(=O)c2ccc(Cl)cc2)CC1)N1CC[C@H](O)C1` (some centres unmarked) [Example 27], under setting [2], the IC50 is 0.001 to 0.2 µM. For `O=C(CC1(C2CCCC(c3cc(F)cc(F)c3)N2S(=O)(=O)c2ccc(Cl)cc2)CC1)N1CC[C@H](O)C1` (some centres unmarked) [Example 3], the half-inhibitory concentration (IC50) reads like this: under setting [1], 0.0132 µM; under setting [2], 0.001 to 0.2 µM and 0.001 to 0.02 µM. Turning to `CCC1(O)CC2CCC(C1)N2C(=O)CC1([C@H]2C[C@@H](O)C[C@@H](C3CC3)N2S(=O)(=O)c2ccc(Cl)cc2)CC1` (some centres unmarked) [Example 48], the IC50 runs as follows: under setting [1], 0.0048 µM; under setting [2], 0.001 to 0.02 µM and 0.001 to 0.2 µM.

For the molecule `O=S(=O)(CC1([C@H]2CCC[C@@H](c3cc(F)cc(F)c3)N2S(=O)(=O)c2ccc(Cl)cc2)CC1)N1CC[C@H](O)C1` [Example 20], the concentration for half-maximal inhibition (IC50) was 0.0151 µM under setting [1]; 0.001 to 0.2 µM and 0.001 to 0.02 µM under setting [2]. On to `O=C(CC1([C@H]2C[C@@H](O)C[C@@H](C3CC3)N2S(=O)(=O)c2ccc(Cl)cc2)CC1)N1CCC(N2CCCCC2)CC1` [Example 46], for which the IC50 under setting [2] was 0.001 to 0.02 µM and 0.001 to 0.2 µM. `O=S(=O)(CC1([C@H]2CCC[C@@H](c3cc(F)cc(F)c3)N2S(=O)(=O)c2ccc(Cl)cc2)CC1)N1CCC(N2CCOCC2)CC1` [Example 24]: the 50% inhibitory concentration (IC50) was 0.0145 µM under setting [1]; 0.001 to 0.2 µM and 0.001 to 0.02 µM under setting [2]. On to `O=C(N1CCN(CCO)CC1)C1([C@H]2CCC[C@@H](c3cc(F)cc(F)c3)N2S(=O)(=O)c2ccc(Cl)cc2)CC1` [Example 10], for which the half-maximal inhibitory concentration (IC50) under setting [2] was 0.001 to 0.2 µM. Regarding `O=C(N1CCC[C@H]1CO)C1([C@H]2CCC[C@@H](c3cc(F)cc(F)c3)N2S(=O)(=O)c2ccc(Cl)cc2)CC1` [Example 7], under setting [2], the IC50 was 0.001 to 0.2 µM. Regarding `O=S(=O)(CC1([C@H]2CCC[C@@H](c3cc(F)cc(F)c3)N2S(=O)(=O)c2ccc(Cl)cc2)CC1)N1CCC[C@H]1CO` [Example 22], the IC50 is 0.0164 µM under setting [1]; 0.001 to 0.2 µM and 0.001 to 0.02 µM under setting [2]. For the molecule `CN1CCN(S(=O)(=O)CC2([C@H]3CCC[C@@H](c4cc(F)cc(F)c4)N3S(=O)(=O)c3ccc(Cl)cc3)CC2)CC1` [Example 21], the IC50 under setting [1] was 0.0117 µM; the IC50 under setting [2] was 0.001 to 0.2 µM and 0.001 to 0.02 µM. As for `O=C(N1CCC(N2CCCCC2)CC1)C1([C@H]2CCC[C@@H](c3cc(F)cc(F)c3)N2S(=O)(=O)c2ccc(Cl)cc2)CC1` [Example 9], the concentration for half-maximal inhibition (IC50) under setting [2] lay in the range of 0.001 to 0.2 µM. On the same count and under the same terms, the figure for `O=C(C(O)C1([C@H]2CCC[C@@H](c3cc(F)cc(F)c3)N2S(=O)(=O)c2ccc(Cl)cc2)CC1)N1CCC[C@H]1CO` (some centres unmarked) [Example 26] is 0.001 to 0.2 µM. Still for that read-out and setting: the figure for `O=C(CC1([C@H]2C[C@@H](O)C[C@@H](C3CC3)N2S(=O)(=O)c2ccc(Cl)cc2)CC1)N1CC[C@@H](O)C1` [Example 47] is 0.001 to 0.2 µM.

What is called IC50 is the point on the concentration scale where inhibition reaches its midpoint.
